ChEMBL document CHEMBL3885861, “Open TG-GATES”

Species on record: Rattus norvegicus
Test: Open TG-GATES - Regimen: Daily Repeat
Type: toxicity, organism-based, Sprague-Dawley
Set-up: regimen Daily Repeat, gender Male, age 6 weeks
Settings: in vivo, sc, 0.2 mg/kg, route subcutaneous injection, dose 200 ug/Kg, dose level High; for APTT / Bas / Eos / Fbg / Hb / Ht / Lym / MCH / MCHC / MCV / Mono / Neu / PT / Plat / RBC / Ret / WBC: tissue Blood
[1] = 72 h, tissue Kidney, time 3 day
[2] = 72 h, tissue Plasma, time 3 day

Question: For `CC(=O)O.N=C(N)NCCC[C@@H](NC(=O)[C@@H]1CCCN1C(=O)[C@@H]1CSSCCC(=O)N[C@@H](Cc2ccc(O)cc2)C(=O)N[C@@H](Cc2ccccc2)C(=O)N[C@@H](CCC(N)=O)C(=O)N[C@@H](CC(N)=O)C(=O)N1)C(=O)NCC(N)=O` [DESMOPRESSIN ACETATE], which TERMINAL_BW (72 h, time 3 day) is on record?
Answer: The TERMINAL_BW was 235.3 g.

Question: What about the APTT (72 h, time 3 day) of the same compound?
Answer: The APTT was 17.2 s.

Question: What about the Bas (72 h, time 3 day) of the same compound?
Answer: The Bas was 0%.

Question: What about the Eos (72 h, time 3 day) of the same compound?
Answer: The Eos was 1%.

Question: And the Fbg (72 h, time 3 day)?
Answer: The Fbg was 258 mg/dL.

Question: And the Hb (72 h, time 3 day)?
Answer: Its Hb is 13.4 g/dL.

Question: And the Ht (72 h, time 3 day)?
Answer: The Ht was 40.8%.

Question: And the Lym (72 h, time 3 day)?
Answer: The Lym was 67.8%.

Question: What about the MCH (72 h, time 3 day) of the same compound?
Answer: The MCH was 21.1 pg.

Question: What about the MCHC (72 h, time 3 day) of the same compound?
Answer: Its MCHC is 32.8%.

Question: What about the MCV (72 h, time 3 day) of the same compound?
Answer: The MCV was 64.3 fL.

Question: And the Mono (72 h, time 3 day)?
Answer: Its Mono is 11.8%.

Question: What about the Neu (72 h, time 3 day) of the same compound?
Answer: Its Neu is 18.8%.

Question: What about the PT (72 h, time 3 day) of the same compound?
Answer: Its PT is 12.2 s.

Question: What about the Plat (72 h, time 3 day) of the same compound?
Answer: The Plat was 126.8 x10_4/uL.

Question: What about the RBC (72 h, time 3 day) of the same compound?
Answer: The RBC was 635.6 x10_4/ul.

Question: And the Ret (72 h, time 3 day)?
Answer: The Ret was 6.8%.

Question: And the WBC (72 h, time 3 day)?
Answer: Its WBC is 73.8 x10_2/uL.

Question: And the KIDNEY_L [1]?
Answer: The KIDNEY_L was 1.1 g.

Question: And the KIDNEY_R [1]?
Answer: Its KIDNEY_R is 1.1 g.

Question: And the KIDNEY_TOTAL [1]?
Answer: Its KIDNEY_TOTAL is 2.2 g.

Question: And the LIVER (72 h, tissue Liver, time 3 day)?
Answer: Its LIVER is 10 g.

Question: What about the A/G [2] of the same compound?
Answer: The A/G was 2.

Question: What about the ALP [2] of the same compound?
Answer: The ALP was 1277.4 IU/L.

Question: What about the ALT [2] of the same compound?
Answer: The ALT was 32 IU/L.

Question: What about the AST [2] of the same compound?
Answer: Its AST is 69.2 IU/L.

Question: What about the BUN [2] of the same compound?
Answer: The BUN was 20 mg/dL.

Question: And the CRE [2]?
Answer: Its CRE is 0.4 mg/dL.

Question: And the Ca [2]?
Answer: Its Ca is 11.3 mg/dL.

Question: And the Cl [2]?
Answer: The Cl was 102.8 meq/L.

Question: And the DBIL [2]?
Answer: The DBIL was 0.012 mg/dL.

Question: What about the GLC [2] of the same compound?
Answer: The GLC was 196.4 mg/dL.

Question: And the IP [2]?
Answer: Its IP is 7.6 mg/dL.

Question: And the K [2]?
Answer: Its K is 5.5 meq/L.

Question: And the LDH [2]?
Answer: The LDH was 179.6 IU/L.

Question: And the Na [2]?
Answer: Its Na is 136 meq/L.

Question: What about the PL [2] of the same compound?
Answer: Its PL is 138.6 mg/dL.

Question: What about the RALB [2] of the same compound?
Answer: The RALB was 3.7 g/dL.

Question: And the TBIL [2]?
Answer: The TBIL was 0.042 mg/dL.

Question: What about the TC [2] of the same compound?
Answer: Its TC is 75.6 mg/dL.

Question: What about the TG [2] of the same compound?
Answer: The TG was 85.2 mg/dL.

Question: And the TP [2]?
Answer: Its TP is 5.6 g/dL.

Question: What about the gamma-GTP [2] of the same compound?
Answer: Its gamma-GTP is 1 IU/L.

Question: What about the TERMINAL_BW ([…], time 7 day) of the same compound?
Answer: Its TERMINAL_BW is 258.6 g.

Question: And the TERMINAL_BW ([…], time 14 day)?
Answer: Its TERMINAL_BW is 323.7 g.

Question: What about the TERMINAL_BW ([…], time 28 day) of the same compound?
Answer: Its TERMINAL_BW is 400.9 g.

Question: What about the APTT ([…], time 7 day) of the same compound?
Answer: The APTT was 18.6 s.

Question: What about the Bas ([…], time 7 day) of the same compound?
Answer: Its Bas is 0%.

Question: What about the Eos ([…], time 7 day) of the same compound?
Answer: The Eos was 1%.

Question: And the Fbg ([…], time 7 day)?
Answer: The Fbg was 251.8 mg/dL.

Question: What about the Hb ([…], time 7 day) of the same compound?
Answer: Its Hb is 13.6 g/dL.

Question: What about the Ht ([…], time 7 day) of the same compound?
Answer: The Ht was 41.4%.

Question: And the Lym ([…], time 7 day)?
Answer: The Lym was 75%.

Question: What about the MCH ([…], time 7 day) of the same compound?
Answer: The MCH was 20.7 pg.

Question: And the MCHC ([…], time 7 day)?
Answer: Its MCHC is 32.9%.

Question: What about the MCV ([…], time 7 day) of the same compound?
Answer: Its MCV is 63.1 fL.

Question: What about the Mono ([…], time 7 day) of the same compound?
Answer: Its Mono is 8.2%.

Question: What about the Neu ([…], time 7 day) of the same compound?
Answer: Its Neu is 16.2%.

Question: And the PT ([…], time 7 day)?
Answer: The PT was 13.4 s.

Question: What about the Plat ([…], time 7 day) of the same compound?
Answer: The Plat was 122 x10_4/uL.

Question: What about the RBC ([…], time 7 day) of the same compound?
Answer: Its RBC is 656.4 x10_4/ul.

Question: What about the Ret ([…], time 7 day) of the same compound?
Answer: The Ret was 7.3%.

Question: What about the WBC ([…], time 7 day) of the same compound?
Answer: The WBC was 112.4 x10_2/uL.

Question: And the APTT ([…], time 14 day)?
Answer: The APTT was 17 s.

Question: And the Bas ([…], time 14 day)?
Answer: The Bas was 0%.

Question: What about the Eos ([…], time 14 day) of the same compound?
Answer: Its Eos is 1.2%.

Question: And the Fbg ([…], time 14 day)?
Answer: The Fbg was 244.8 mg/dL.

Question: And the Hb ([…], time 14 day)?
Answer: Its Hb is 13.8 g/dL.

Question: And the Ht ([…], time 14 day)?
Answer: The Ht was 42.7%.

Question: And the Lym ([…], time 14 day)?
Answer: The Lym was 73.2%.

Question: What about the MCH ([…], time 14 day) of the same compound?
Answer: Its MCH is 20.5 pg.

Question: And the MCHC ([…], time 14 day)?
Answer: Its MCHC is 32.4%.

Question: What about the MCV ([…], time 14 day) of the same compound?
Answer: Its MCV is 63.2 fL.

Question: What about the Mono ([…], time 14 day) of the same compound?
Answer: The Mono was 8.2%.

Question: What about the Neu ([…], time 14 day) of the same compound?
Answer: The Neu was 17.4%.

Question: And the PT ([…], time 14 day)?
Answer: Its PT is 11.9 s.

Question: What about the Plat ([…], time 14 day) of the same compound?
Answer: The Plat was 110.6 x10_4/uL.

Question: And the RBC ([…], time 14 day)?
Answer: The RBC was 675.8 x10_4/ul.

Question: And the Ret ([…], time 14 day)?
Answer: Its Ret is 6.1%.

Question: And the WBC ([…], time 14 day)?
Answer: The WBC was 104.8 x10_2/uL.

Question: What about the APTT ([…], time 28 day) of the same compound?
Answer: Its APTT is 18.9 s.

Question: And the Bas ([…], time 28 day)?
Answer: The Bas was 0%.

Question: What about the Eos ([…], time 28 day) of the same compound?
Answer: The Eos was 1%.

Question: And the Fbg ([…], time 28 day)?
Answer: The Fbg was 260.8 mg/dL.

Question: And the Hb ([…], time 28 day)?
Answer: The Hb was 15 g/dL.

Question: And the Ht ([…], time 28 day)?
Answer: Its Ht is 45.6%.
